Patent US10844066B2, “2-amino-N-[7-methoxy-2, 3-dihydroimidazo-[1,2-c] quinazolin-5-yl] pyrimidine-5-carboxamides” (Bayer Pharma Aktiengesellschaft, priority 2016, dated 2020)

Legend:
[1] = target: T1, human p110β subunit of PI3K (PI3Kβ) (Homo sapiens, UniProt P42338); experiment: Solid-Phase Lipid Kinase p110β assay; assay type: biochemical; details: recombinant truncated (ΔN 1-108) p110β, 7.5 ng/well; otherwise as PI3Kα assay
T1 construct: His6 (N); made in house; host or cells: S. frugiperda 9 (Sf9) insect cells
T1 sequence (P42338 109-1070): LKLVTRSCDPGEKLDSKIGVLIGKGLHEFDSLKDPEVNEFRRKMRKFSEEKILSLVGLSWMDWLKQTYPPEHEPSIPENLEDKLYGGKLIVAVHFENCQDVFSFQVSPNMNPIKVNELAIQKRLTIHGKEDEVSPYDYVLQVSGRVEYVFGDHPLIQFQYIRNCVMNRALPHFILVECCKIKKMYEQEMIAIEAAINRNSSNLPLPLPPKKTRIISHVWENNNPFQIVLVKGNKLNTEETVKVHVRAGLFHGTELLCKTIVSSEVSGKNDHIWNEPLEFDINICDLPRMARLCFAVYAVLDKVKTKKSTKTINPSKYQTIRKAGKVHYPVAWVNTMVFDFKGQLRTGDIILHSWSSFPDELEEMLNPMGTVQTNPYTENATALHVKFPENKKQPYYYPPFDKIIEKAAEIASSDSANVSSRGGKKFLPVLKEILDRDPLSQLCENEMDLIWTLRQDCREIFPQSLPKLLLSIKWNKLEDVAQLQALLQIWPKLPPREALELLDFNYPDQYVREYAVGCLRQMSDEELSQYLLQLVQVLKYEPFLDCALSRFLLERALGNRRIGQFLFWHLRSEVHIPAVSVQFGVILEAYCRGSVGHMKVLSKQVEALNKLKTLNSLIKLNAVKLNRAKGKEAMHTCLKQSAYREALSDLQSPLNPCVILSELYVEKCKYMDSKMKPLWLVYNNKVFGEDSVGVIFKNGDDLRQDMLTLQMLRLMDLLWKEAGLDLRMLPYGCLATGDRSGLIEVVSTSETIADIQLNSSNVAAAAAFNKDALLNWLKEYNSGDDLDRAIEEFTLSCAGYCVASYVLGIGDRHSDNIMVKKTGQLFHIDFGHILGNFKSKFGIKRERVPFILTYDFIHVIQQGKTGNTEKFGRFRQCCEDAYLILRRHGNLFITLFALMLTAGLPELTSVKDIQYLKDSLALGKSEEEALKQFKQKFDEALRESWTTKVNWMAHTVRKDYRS
Procedure: To assess inhibition of PI3Kα by compounds, the Maxisorp™ plates were coated with 50 μL/well of a solution containing 50 μg/ml Ptdlns and 50 μg/ml PtdSer dissolved in chloroform:ethanol (3:7). The plates were subsequently air-dried by incubation for at least 2 hours in a fume hood. The reaction was set up by mixing 25 μL/well of assay buffer 2× (100 mM MOPSO/NaOH, 0.2 M NaCl, pH 7.0, 8 mM MgCl2, 2 mg/mL BSA (fatty acid-free)), and 7.5 ng/well PI3Kα in the lipid pre-coated plate. 10× test compounds were added in 2% DMSO. The reaction was started by adding 5 μL/well of a 40 μM ATP mix (final 10 μM ATP; 20 μCi/ml[γ^33P]ATP). After incubation at RT for 2 hours, the reaction was terminated by adding 5 μl/well stop solution (25 mM EDTA, pH 8.0). The plate was then washed twice with Tris-buffered saline (TBS, pH 7.4). Ultima Gold™ (PERKINELMER) scintillation mix was added at 25 μL/well.
(§1) The radioactivity incorporated into the immobilized PI substrate was determined with a BetaPlate Liquid Scintillation Counter (PerkinElmer).
(§2) The inhibition percent at each concentration of compound was calculated, and IC50 values were determined from the inhibition of curve.
A recombinant truncated form (ΔN 1-108) of the human p110β or […] subunit of PI3K with an N-terminal His6-Tag was expressed in S. frugiperda 9 insect cells. […]

[2] = target: T2, human p110α subunit of PI3K (PI3Kα) (Homo sapiens, UniProt P42336); experiment: Solid-Phase Lipid Kinase p110α assay; assay type: biochemical; details: recombinant truncated (ΔN 1-108) p110α, 7.5 ng/well; final 10 μM ATP; RT 2 hours
T2 construct: His6 (N); made in house; host or cells: S. frugiperda 9 (Sf9) insect cells
T2 sequence (P42336 109-1068): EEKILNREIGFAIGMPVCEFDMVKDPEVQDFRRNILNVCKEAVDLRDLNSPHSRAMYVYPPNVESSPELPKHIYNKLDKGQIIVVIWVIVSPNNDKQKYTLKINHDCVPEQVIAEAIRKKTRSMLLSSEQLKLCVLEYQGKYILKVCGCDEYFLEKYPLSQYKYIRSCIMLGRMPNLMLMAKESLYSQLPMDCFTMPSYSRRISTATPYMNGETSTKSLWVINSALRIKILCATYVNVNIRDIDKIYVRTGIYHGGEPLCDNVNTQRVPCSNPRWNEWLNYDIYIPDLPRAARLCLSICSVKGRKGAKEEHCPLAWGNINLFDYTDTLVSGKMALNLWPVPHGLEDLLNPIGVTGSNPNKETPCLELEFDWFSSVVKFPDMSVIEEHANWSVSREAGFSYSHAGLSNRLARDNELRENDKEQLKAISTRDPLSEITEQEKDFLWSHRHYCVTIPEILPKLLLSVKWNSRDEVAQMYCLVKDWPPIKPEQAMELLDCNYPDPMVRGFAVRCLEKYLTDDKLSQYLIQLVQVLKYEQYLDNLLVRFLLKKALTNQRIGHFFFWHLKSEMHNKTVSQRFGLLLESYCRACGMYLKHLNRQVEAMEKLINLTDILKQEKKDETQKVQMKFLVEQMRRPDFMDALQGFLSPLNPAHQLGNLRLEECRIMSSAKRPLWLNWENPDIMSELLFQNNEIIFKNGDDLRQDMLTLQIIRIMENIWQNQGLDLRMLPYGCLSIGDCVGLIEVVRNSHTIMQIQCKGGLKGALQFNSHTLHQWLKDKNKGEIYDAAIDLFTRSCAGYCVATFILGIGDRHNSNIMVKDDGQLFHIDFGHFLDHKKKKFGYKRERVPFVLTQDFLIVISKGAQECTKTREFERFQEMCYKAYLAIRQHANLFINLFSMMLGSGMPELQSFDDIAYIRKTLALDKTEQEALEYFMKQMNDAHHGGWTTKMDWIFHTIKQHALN
Excerpt: [Determination of IC50 Values of Compounds in Kinase Assay of PI3Kα]
Phosphatidylinositol (Ptdlns) and phosphatidylserine (PtdSer) were purchased from DOOSAN SERDARY RESEARCH LABORATORIES (Toronto, Canada). Recombinant truncated forms (ΔN 1-108) of the human p110α and p110β subunits of PI3K with N-terminal His6-Tags were expressed in S. frugiperda 9 insect cells. Recombinant human PI3Kγ (full length human PI3K p1107 fused with a His6-tag at the C-terminus expressed in S. frugiperda 9 insect cells) was obtained from ALEXIS BIOCHEMICALS (#201-055-C010; San Diego, Calif.). [γ^33P]ATP and unlabeled ATP were purchased from AMERSHAM PHARMACIA BIOTECH (Buckinghamshire, UK) and ROCHE DIAGNOSTICS (Mannheim, Germany), respectively. Scintillation cocktails Ultima Gold™ scintillation cocktail were purchased from PERKIN ELMER. Maxisorp™ plates were purchased from NALGE NUNC INTERNATIONAL K.K. (Tokyo, Japan). All other chemicals not further specified were from WAKO PURE CHEMICALS (Osaka, Japan). […]
as §1, §2

| IC50 [1] [nM] | IC50 [2] [nM] | SMILES |
| --- | --- | --- |
| 13 |  | COc1c(OCCCN2CCOCC2=O)ccc2c1N=C(NC(=O)c1cnc(N)nc1)N1CCN=C21 [drawing 16, 2-amino-N-{7-methoxy-8-[3-(3-oxomorpholin-4-yl)propoxy]-2,3-dihydroimidazo[1,2-c]quinazolin-5-yl}pyrimidine-5-carboxamide] |
|  | 0.7 | COc1c(OCCCN2CCOCC2=O)ccc2c1N=C(NC(=O)c1cnc(N)nc1)N1CCN=C21 [drawing 15, 2-amino-N-{7-methoxy-8-[3-(3-oxomorpholin-4-yl)propoxy]-2,3-dihydroimidazo[1,2-c]quinazolin-5-yl}pyrimidine-5-carboxamide] |
